Source: patent publication US20070213272A1, “Transmucosal Administration Agent Containing Pth” (priority 2004, published 2007)
Several values for one entry are separate records, joined by “and”; a condition that tells them apart may be missing. Equal entries are not always repeated.

How the values were obtained:
patients = settings: subcutaneous administration, Neer et al. 2001; cited from earlier work
[1] = tested on: patients with primary osteoporosis; test: Safety evaluation: adverse events and side effects in transnasal clinical study; format: in vivo, human
Description: […] Here, hPTH1-34 transnasal administration formulation was produced by the method in Example 2 of International Patent Publication No. WO02/02136. Using a nebulizer VP-7 (Valois) which uniformly sprays 100 μL of the drug solution by pumping once, one pumping for each nasal cavity, the total of 200 μL of the drug solution was sprayed daily. […] A single dose containing each amount of hPTH(1-34) was administered once a day on consecutive days of 12 weeks, and effectiveness and safety of each amount was confirmed. Safety evaluation: the occurrence number of adverse events was counted and evaluated. In counting adverse and other events, coding to preferred terms (PT) and classification of adverse event names into system organ classes (SOC) were conducted based on “MedDRA Version6.1”.

[2] = PTH(1-34) level in plasma after caudal vein and subcutaneous administration (pharmacokinetics); format: in vivo, rat
Description: Changes of PTH(1-34) level in plasma by caudal vein administration (iv) and subcutaneous administration (sc) were examined. hPTH(1-34) was diluted with phosphate buffer solution (PBS)/0.05% Tween 80 and adjusted to 10 nmol/ml. Female SD-IGS rats at 8 weeks of age (Charles River Japan, Inc.) were used for the experiment. A single dose administration was carried out by caudal vein administration and subcutaneous administration, and blood was collected from tail vein using a capillary tube for blood collection in a time-dependent manner (at pre-administration, 2.5, 5, 7.5, 10, 15, 30, 60, 90, 120 min.). After EDTA plasma was isolated, the collected blood samples were stored at -80° C. until the hPTH(1-34) level was measured. The PTH(1-34) level was measured by ELISA method using PTH(1-34) (human)-EIA kit (Peninsula Laboratories).

[3] = transnasal, all dose groups, 97 subjects for safety evaluation
[4] = rat, iv (caudal vein) single dose, 10 nmol/ml solution, female SD-IGS rats, plasma
[5] = rat, sc single dose, 10 nmol/ml solution, female SD-IGS rats, plasma

## CC[C@H](C)[C@H](NC(=O)[C@H](CCC(=O)O)NC(=O)[C@H](CO)NC(=O)[C@@H](NC(=O)[C@@H](N)CO)C(C)C)C(=O)N[C@@H](CCC(N)=O)C(=O)N[C@@H](CC(C)C)C(=O)N[C@@H](CCSC)C(=O)N[C@@H](Cc1cnc[nH]1)C(=O)N[C@@H](CC(N)=O)C(=O)N[C@@H](CC(C)C)C(=O)NCC(=O)N[C@@H](CCCCN)C(=O)N[C@@H](Cc1cnc[nH]1)C(=O)N[C@@H](CC(C)C)C(=O)N[C@@H](CC(N)=O)C(=O)N[C@@H](CO)C(=O)N[C@@H](CCSC)C(=O)N[C@@H](CCC(=O)O)C(=O)N[C@@H](CCCN=C(N)N)C(=O)N[C@H](C(=O)N[C@@H](CCC(=O)O)C(=O)N[C@@H](Cc1c[nH]c2ccccc12)C(=O)N[C@@H](CC(C)C)C(=O)N[C@@H](CCCN=C(N)N)C(=O)N[C@@H](CCCCN)C(=O)N[C@@H](CCCCN)C(=O)N[C@@H](CC(C)C)C(=O)N[C@@H](CCC(N)=O)C(=O)N[C@@H](CC(=O)O)C(=O)N[C@H](C(=O)N[C@@H](Cc1cnc[nH]1)C(=O)N[C@@H](CC(N)=O)C(=O)N[C@@H](Cc1ccccc1)C(=O)O)C(C)C)C(C)C [hPTH(1-34)]
patients
  frequency of dizziness: 9%
  frequency of headache: 13%
  frequency of leg cramps: 3%
  frequency of nausea: 18%
[1]; transnasal, 250-μg group
  number of adverse events: 46 events
  number of side effect events: 12 events
  subjects with adverse events: 71.0%
  subjects with side effects: 22.6%
[1]; transnasal, 500-μg group
  number of adverse events: 51 events
  number of side effect events: 10 events
  subjects with adverse events: 76.7%
  subjects with side effects: 26.7%
[1]; transnasal, 1,000-μg group
  number of adverse events: 48 events
  number of side effect events: 13 events
  subjects with adverse events: 69.0%
  subjects with side effects: 24.1%
[1]; transnasal, 1,500-μg group
  number of adverse events: 10 events
  number of side effect events: 2 events
  subjects with adverse events: 71.4%
  subjects with side effects: 28.6%
[1]; transnasal, all dose groups
  frequency of leg cramps: no observation and 0%
  frequency of nausea: no observation and 0%
  number of side effect events: 37 events
  occurrence rate of clinical examination (SOC): 19.6%
  occurrence rate of dizziness: 4.1%
  occurrence rate of headache: 7.2%
  occurrence rate of heat failure (SOC): 21.6%
  occurrence rate of infectious disease and parasitic disease (SOC): 18.6%
  occurrence rate of nasopharyngitis (PT): 14.4%
  occurrence rate of supraventricular premature beat (PT): 12.4%
  occurrence rate of ventricular premature beat (PT): 5.2%
  side effect events with the occurrence rate of 5% or more: no event
  subjects with side effects: 24.7%
[1]; [3]
  number of adverse events: 155 events
  subjects with adverse events: 72.2%
[2]; iv versus sc single dose, rats
  PK profile of iv administration compared with sc administration: more pulse-like PK
[2]; [4]
  AUC: 17.8 ng·h/mL
  half-life: 6.9 min
[2]; [5]
  AUC: 3.83 ng·h/mL
  Cmax: 9 ng/mL
  Tmax: 20 min
  half-life: 10.8 min
